This is an account of results in ChEMBL document CHEMBL1201862, “PubChem BioAssay data set” (2004).

Activity calls are given as the source filed them.

A short description of experiment [1]: Luminescence Cell-Based Dose Retest to Confirm Inhibitors of Cancer Stem Cells. [Related pubchem assays (depositor defined):AID2717, AID2721]. The experiment is classed as functional. The note with it: Homo sapiens.
The nature of experiment [2]: HEK-293T viability loss after treatment – luminescence, T-cell screen hits, cytotoxicity control for TCR NF-kB inhibitor project, dose response (AID 489026).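 Also: cells exposed to compound about 14 hours before the viability readout.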 The experiment is classed as functional, cell-based.
Experiment [3] is described as follows: Luminescence Cell-Based Dose Confirmation HTS to Identify Activators of 5'UTR Stem-Loop Driven Alpha-Synuclein mRNA Translation in H4 Neuroglioblastoma Cells. [Related pubchem assays: 1829 (Project Summary), 1814 (Primary HTS)]. The experiment is classed as functional.
Experiment [4] is described as follows: Luminescence Cell-Based Dose Response HTS to Identify Activators of Luciferase Translation or Activity in H4 […] Cells. [Related pubchem assays: 1829 (Project Summary), 1814 (Primary HTS)]. In kind it is functional.
Experiment [5] concerns H4. As to the kind of experiment: Luminescence Cell-Based Dose Response HTS to Identify Activators of 5'UTR Stem-Loop Driven Prion Protein mRNA Translation in H4 Neuroglioblastoma Cells. [Related pubchem assays: 1829 (Project Summary), 1814 (Primary HTS)]. In kind it is functional. As to conditions: Homo sapiens.
Experiment [6] in a line: microbe, parasite or virus in culture. In kind it is functional. The note with it: Mycobacterium tuberculosis.
The target in experiment [7] is T1, Coagulation factor XII (Homo sapiens, UniProt P00748).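 Also: activated factor XIIa alpha cleaving a fluorogenic AMC peptide substrate; inhibitor potency from loss of enzyme activity.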
T1 sequence (P00748 whole entry): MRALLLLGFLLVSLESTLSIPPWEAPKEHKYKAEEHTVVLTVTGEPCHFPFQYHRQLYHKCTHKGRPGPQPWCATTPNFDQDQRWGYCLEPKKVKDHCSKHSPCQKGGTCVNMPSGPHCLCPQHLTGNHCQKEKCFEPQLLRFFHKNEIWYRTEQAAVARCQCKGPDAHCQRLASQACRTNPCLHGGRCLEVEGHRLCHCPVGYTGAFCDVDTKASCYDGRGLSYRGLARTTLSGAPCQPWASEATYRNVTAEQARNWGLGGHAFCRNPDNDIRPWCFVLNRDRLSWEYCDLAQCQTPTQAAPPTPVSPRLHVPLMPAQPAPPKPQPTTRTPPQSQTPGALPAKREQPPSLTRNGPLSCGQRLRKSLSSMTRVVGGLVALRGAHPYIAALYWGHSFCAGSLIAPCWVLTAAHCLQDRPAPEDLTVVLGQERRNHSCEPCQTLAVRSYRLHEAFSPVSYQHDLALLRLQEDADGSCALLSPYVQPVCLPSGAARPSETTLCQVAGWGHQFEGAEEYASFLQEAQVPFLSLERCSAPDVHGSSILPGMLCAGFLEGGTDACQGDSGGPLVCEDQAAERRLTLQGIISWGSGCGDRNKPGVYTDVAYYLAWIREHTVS
The experiment is classed as functional.

Experiment [8] concerns the target T2, Estrogen receptor (Homo sapiens, UniProt P03372).
T2 sequence (P03372 whole entry): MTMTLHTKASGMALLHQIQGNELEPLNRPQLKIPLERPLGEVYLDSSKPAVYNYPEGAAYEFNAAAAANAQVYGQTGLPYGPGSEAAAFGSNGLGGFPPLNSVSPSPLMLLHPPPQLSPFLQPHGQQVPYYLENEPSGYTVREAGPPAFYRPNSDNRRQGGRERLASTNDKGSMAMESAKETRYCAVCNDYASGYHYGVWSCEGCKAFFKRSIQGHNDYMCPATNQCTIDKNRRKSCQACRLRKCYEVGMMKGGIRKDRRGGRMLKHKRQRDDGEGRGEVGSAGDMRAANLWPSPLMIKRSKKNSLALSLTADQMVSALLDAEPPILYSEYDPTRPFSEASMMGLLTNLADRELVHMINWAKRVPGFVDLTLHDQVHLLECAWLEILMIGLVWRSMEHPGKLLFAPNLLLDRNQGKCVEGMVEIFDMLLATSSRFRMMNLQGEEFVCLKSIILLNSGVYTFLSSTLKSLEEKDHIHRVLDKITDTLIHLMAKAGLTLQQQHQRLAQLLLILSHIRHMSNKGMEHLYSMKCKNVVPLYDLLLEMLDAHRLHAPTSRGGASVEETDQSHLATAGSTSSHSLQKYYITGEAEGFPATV

A short description of experiment [9]: A Cell Based Secondary Assay To Explore Cytotoxicity of Compounds that Sensitize Mycobacterium Tuberculosis to Beta-Lactam Antibiotics. In kind it is functional.
Experiment [10] addresses T3, Ubiquitin-conjugating enzyme E2 N (Homo sapiens, UniProt P61088).
T3 sequence (P61088 whole entry): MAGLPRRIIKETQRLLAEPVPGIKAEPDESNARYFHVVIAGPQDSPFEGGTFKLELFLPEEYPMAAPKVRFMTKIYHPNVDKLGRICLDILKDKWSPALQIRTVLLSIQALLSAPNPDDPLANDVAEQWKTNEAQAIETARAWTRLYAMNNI
The experiment is classed as functional.

For experiment [11], the system named is INS1. Description: INS-1E survival protection against cytokine death – cell-based, luminescence, retest, dose response (AID 449756).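 Also: cell death triggered by IL-1 beta plus TNF-alpha plus IFN-gamma mixture; protective hits raise ATP signal compared with cytokine alone wells.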 The note with it: Rattus norvegicus. In kind it is functional.
For experiment [12], the target named is Estrogen receptor beta (Homo sapiens, UniProt Q92731).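 Also: recombinant ER-beta bound to coactivator SRC1 peptide in presence of estradiol agonist; inhibitors block coactivator peptide binding and lower the FRET signal.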
In experiment [13] the test system is BJ. Description: BJ-TERT-LT-ST fibroblast viability loss – cell-based, RAS-independent, luminescence, dose response (AID 1935).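 Also: BJ fibroblasts immortalized with TERT plus LT and ST oncogenes.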 The experiment is classed as functional. As to conditions: Homo sapiens.
In experiment [14] the test system is BJ. Description: cells. In kind it is functional, cell-based. The note with it: Homo sapiens.
The nature of experiment [15]: DRD fibroblast viability loss – cell-based, non-viral oncogenic, luminescence, dose response (AID 1934). The experiment is classed as functional. As to conditions: Homo sapiens.
In experiment [16] the test system is BJ. As to the kind of experiment: BJ-TERT fibroblast viability loss – cell-based, RAS-independent, luminescence, dose response (AID 1933). In kind it is functional. As to conditions: Homo sapiens.
In experiment [17] the target is T4, Streptokinase A (Streptococcus pyogenes serotype M1, UniProt P10520).
T4 sequence (P10520 whole entry): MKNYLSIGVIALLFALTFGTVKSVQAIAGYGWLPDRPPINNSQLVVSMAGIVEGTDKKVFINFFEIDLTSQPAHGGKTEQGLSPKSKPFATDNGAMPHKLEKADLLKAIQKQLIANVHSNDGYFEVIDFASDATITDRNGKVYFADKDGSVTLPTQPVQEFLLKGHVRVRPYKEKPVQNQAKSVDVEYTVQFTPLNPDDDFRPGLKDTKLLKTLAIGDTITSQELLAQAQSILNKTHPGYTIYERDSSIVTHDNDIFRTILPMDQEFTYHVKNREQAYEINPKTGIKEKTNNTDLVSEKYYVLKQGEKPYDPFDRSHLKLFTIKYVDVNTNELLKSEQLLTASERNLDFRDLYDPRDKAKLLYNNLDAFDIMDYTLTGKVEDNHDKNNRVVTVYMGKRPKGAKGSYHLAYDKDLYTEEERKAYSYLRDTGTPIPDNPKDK
Description: viability-normalized secreted streptokinase activity reduction – plasminogen activation absorbance, OD405, dose response (AID 1914).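 Also: secreted streptokinase activity via plasminogen activation per viability signal from cell pellet.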 In kind it is functional, Streptococcus pyogenes M1 GAS.

Experiment [18] has as its system Streptococcus sp. 'group A'. Description: Streptococcus pyogenes SK(-)GAS viability under kanamycin – luminescence, BacTiterGlo, confirmation, counter-screen for streptokinase expression inhibitor project, dose response (AID 1900). The experiment is classed as functional, organism-based.
In experiment [19] the test system is Streptococcus. As to the kind of experiment: GAS UMAA2166 growth inhibition – luminescence, BacTiterGlo, counter-screen for streptokinase expression inhibitor project, dose response (AID 1915).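 Also: potency for reduction of bacterial viability or growth.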 The experiment is classed as functional, organism-based. In general terms: The purpose of a counterscreen is to sort out artefacts and off-target activity.
Experiment [20] addresses Induced myeloid leukemia cell differentiation protein Mcl-1 (Homo sapiens, UniProt Q07820). In kind it is functional.
In experiment [21] the target is Cytochrome P450 2C19 (Homo sapiens, UniProt P33261). Description: Cytochrome panel assay with activity outcomes. Panel member name: p450-cyp2c19 Compounds with AC50 equal or less than 10 uM are considered active. The note with it: read-out: AC50. The experiment is classed as functional.
Experiment [22] has as its target T5, Mannose-6-phosphate isomerase (Homo sapiens, UniProt P34949).
T5 sequence (P34949 whole entry): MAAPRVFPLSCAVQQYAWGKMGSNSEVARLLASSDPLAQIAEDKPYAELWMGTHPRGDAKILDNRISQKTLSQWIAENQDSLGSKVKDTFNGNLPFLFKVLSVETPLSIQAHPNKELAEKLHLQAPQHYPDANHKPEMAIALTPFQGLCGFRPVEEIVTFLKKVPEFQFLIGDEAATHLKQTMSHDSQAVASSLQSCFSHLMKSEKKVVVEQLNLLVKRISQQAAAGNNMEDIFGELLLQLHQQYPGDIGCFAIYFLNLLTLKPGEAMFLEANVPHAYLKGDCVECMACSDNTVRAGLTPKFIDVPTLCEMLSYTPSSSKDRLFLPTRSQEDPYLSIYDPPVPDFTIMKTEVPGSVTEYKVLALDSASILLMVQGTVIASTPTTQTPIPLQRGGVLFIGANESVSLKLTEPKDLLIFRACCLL
As to the kind of experiment: MPI inhibition at elevated mannose 6-phosphate – biochemical, fluorescence intensity, high mannose 6-phosphate, primary screen (AID 1220).

Chain of Induced myeloid leukemia cell differentiation protein Mcl-1 (Q07820 whole entry): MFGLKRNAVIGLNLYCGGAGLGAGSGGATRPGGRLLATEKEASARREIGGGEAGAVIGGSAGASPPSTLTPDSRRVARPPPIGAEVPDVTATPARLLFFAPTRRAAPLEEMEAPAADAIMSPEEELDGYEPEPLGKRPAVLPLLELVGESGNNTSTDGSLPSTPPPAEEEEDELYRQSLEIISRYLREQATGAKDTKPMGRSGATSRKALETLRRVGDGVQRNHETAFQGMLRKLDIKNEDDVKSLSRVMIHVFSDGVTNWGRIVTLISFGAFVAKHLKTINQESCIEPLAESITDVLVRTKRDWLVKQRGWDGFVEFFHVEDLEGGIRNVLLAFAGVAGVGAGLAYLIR
Chain of Cytochrome P450 2C19 (P33261 whole entry): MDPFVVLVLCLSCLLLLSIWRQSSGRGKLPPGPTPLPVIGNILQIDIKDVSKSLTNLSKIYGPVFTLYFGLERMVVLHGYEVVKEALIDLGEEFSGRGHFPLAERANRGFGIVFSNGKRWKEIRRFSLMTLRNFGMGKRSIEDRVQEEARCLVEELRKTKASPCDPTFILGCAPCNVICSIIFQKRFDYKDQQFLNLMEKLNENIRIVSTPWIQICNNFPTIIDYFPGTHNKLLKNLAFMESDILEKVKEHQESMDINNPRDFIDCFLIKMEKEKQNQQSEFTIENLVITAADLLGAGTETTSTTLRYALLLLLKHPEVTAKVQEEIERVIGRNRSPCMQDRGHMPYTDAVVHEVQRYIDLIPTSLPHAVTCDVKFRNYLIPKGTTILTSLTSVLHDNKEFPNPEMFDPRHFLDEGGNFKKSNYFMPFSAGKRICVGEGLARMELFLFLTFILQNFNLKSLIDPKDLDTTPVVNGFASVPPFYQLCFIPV
Chain of Estrogen receptor beta (Q92731 whole entry): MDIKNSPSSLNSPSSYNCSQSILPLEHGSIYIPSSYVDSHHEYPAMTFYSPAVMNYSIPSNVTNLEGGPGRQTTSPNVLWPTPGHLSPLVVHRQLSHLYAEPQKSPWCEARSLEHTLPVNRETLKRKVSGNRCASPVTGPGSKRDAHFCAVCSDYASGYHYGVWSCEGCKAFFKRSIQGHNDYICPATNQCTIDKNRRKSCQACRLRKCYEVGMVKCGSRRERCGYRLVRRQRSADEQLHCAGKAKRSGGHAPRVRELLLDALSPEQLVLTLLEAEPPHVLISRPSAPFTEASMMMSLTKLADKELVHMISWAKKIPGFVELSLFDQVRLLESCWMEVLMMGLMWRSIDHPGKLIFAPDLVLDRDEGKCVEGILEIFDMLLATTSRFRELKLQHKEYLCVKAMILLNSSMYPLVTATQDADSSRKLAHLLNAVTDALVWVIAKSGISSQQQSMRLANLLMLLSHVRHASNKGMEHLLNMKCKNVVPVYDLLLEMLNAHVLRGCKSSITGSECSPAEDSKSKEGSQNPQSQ

In the case of `O=C(c1ccccc1)c1nn(-c2ccc(Cl)cc2)c(=O)cc1C(F)(F)F`, in experiment [1], the AC50 is 4.21 µM (active). In addition, the IC50 in [2] is > 80 µM (inactive). Also, the EC50 was 0.222 µM (active) in [3], > 120 µM (not active) in [4] and > 120 µM (not active) in [5]. Besides, the CC50 in experiment [6] was 15.7 µM (active).

Consider `COC(=O)C(C)NC(=O)C1CCCN1S(=O)(=O)c1cc(C)c(Cl)cc1C` (stereo not given), for which the IC50 in experiment [7] was > 50 µM (inactive).

For the compound `CN(C)CC(=O)N1c2ccccc2CCc2ccc(NC(=O)c3ccc(N)cc3)cc21`, in experiment [8], the half-inhibitory concentration (IC50) is 15.6 µM (active).

As for `Cc1ccc(C)c(NC(=O)CN(C)C(=O)CCN2C(=O)c3ccccc3C2=O)c1`, the IC50 in [7] was > 50 µM (inactive).

For `Cc1cc(C)cc(OCC(=O)NNC(=O)c2ccccn2)c1`, the CC50 in experiment [9] was 11.4 µM (active). The IC50 in [10] is > 20 µM (inactive).

Take `Brc1c(C[n+]2ccccc2)nc2ccccn12`: in experiment [7], the IC50 is > 50 µM (inactive).

For the compound `CCc1nnc(NC(=O)C2Cc3ccccc3CN2S(=O)(=O)c2cccs2)s1` (stereo not given), in experiment [8], the IC50 is recorded as > 50 µM (not active).

For `CCOc1ccc(S(=O)(=O)N(C(=O)c2ccco2)c2cc3sc(=O)oc3c3ccccc23)cc1`, in experiment [11], the AC50 was 4.42 µM (active). In addition, the CC50 in experiment [9] is 31.6 µM (active).

As for `N#CCCS(=O)(=O)c1nnnn1-c1ccccc1`, the IC50 in [8] and in experiment [12] was > 50 µM (not active) throughout.

For `Cc1cc(C)cc(OCc2nc3cc(Br)c[nH]c-3n2)c1`, the 50% inhibitory concentration (IC50) in experiment [8] is given as > 50 µM (not active).

Consider `O=C(C1=C[C@H](c2ccc(Br)cc2)C[C@H](OCc2ccc(CO)cc2)O1)N1CCN(Cc2ccc3c(c2)OCO3)CC1`, for which the CC50 in [9] is 32 µM (active).

Take `CCOc1cc(NC(=O)c2ccc(C)cc2)c(OCC)cc1N=C(S)NCCCN1CCOCC1`: in [7], the IC50 was > 50 µM (inactive).

Consider `Cc1c(Cl)cccc1Nc1nc(N)nc(CN2CCc3ccccc3C2)n1`, for which the IC50 in [7] was > 50 µM (inactive).

Consider `O=C(c1ccccc1-c1ccccc1)N1CCN(c2ccccn2)CC1`, for which the concentration for a half-maximal effect (EC50) was 13.9 µM (inconclusive) in [13], 19.9 µM (active) in experiment [14], 11.4 µM (active) in experiment [15] and 9.85 µM (active) in experiment [16]. In addition, the IC50 in experiment [2] is > 80 µM (inactive).

In the case of `CCc1cccc2c(C(=O)COC(=O)/C=C/c3ccc(O)c(OC)c3)c[nH]c12`, in [9], the CC50 is > 40 µM (active). Moreover, the EC50 was > 150 µM (not active) in [17], 8.62 µM (active) in experiment [18] and 41.1 µM (active) in experiment [19].

Regarding `c1ccc(CNC2=NN=C(c3cc4ccccc4o3)CS2)cc1`, the IC50 in experiment [20] is 2.66 µM (not active).

For `COc1cc(OC)cc(-c2nnc(NC(=O)CCS(=O)(=O)c3ccc(C)cc3)o2)c1`, in experiment [9], the CC50 is 32.4 µM (active).

Consider `CSC1=NC(c2ccc(C)cc2)=NC(C(Cl)(Cl)Cl)N1` (stereo not given), for which, in [2], the IC50 was > 80 µM (inactive).

`CCOC(=O)c1c(C)oc2c1c(/C=N/C1CCS(=O)(=O)C1)c(O)c1ccccc12` (stereo not given): in experiment [21], the AC50 was 1.78 µM (inconclusive). Besides, the IC50 in [8] was 16 µM (active); in experiment [22], > 50 µM (not active).

`CCCCNc1c(-c2ccc(SC3CCCCC3)c(OC)c2)nc2ccc(C)cn12`: the concentration at half-maximal activity (AC50) in [1] is 3.1 µM (active). In addition, the CC50 in [6] is > 40 µM (active).

With `Cc1ccc(-c2nnc(S)n2/N=C/C=C\c2ccccc2[N+](=O)[O-])cc1`, the IC50 in [8] was 7.32 µM (active).

With `Cn1cc(C(=O)N/N=C/c2ccc([N+](=O)[O-])cc2)c2ccccc21`, the IC50 in experiment [20] was 1.94 µM (active).

A word on the AC50: it is the concentration giving half of the maximal activity seen. Usually IC50 stands for the concentration that inhibits the measured activity by half. What is called EC50 is the concentration giving half of the maximal effect.
